Tests used:
[1] = tested on: bilirubin oxidase (BOD), coated BOD 1 (Reference Example)
Method: (§1) The solution was homogeneously added to the above acryloylated BOD solution, and the resulting solution was allowed to react for 60 minutes.
(§2) The Michaelis constants (KM) and the reaction rate constants (kcat) of coated BOD 1, coated BOD 2, and free BOD 1 prepared above were measured under the conditions shown in Table 1 below. […] The amount of protein of each BOD sample was determined by bicinchoninic acid (BCA) colorimetric protein assay from a calibration curve of bovine serum albumin (BSA) used as a standard protein.

[2] = tested on: bilirubin oxidase (BOD), coated BOD 2 (Reference Example)
Method: as §1, §2

[3] = tested on: bilirubin oxidase (BOD), free BOD 1 (not coated, stored at 4° C.); details: oxygen saturation
Method: As a control, BOD on which coating was not performed and which was stored at 4° C. for the same period of time as that is necessary for the process of preparing coated BOD 2 (hereinafter referred to as “free BOD 1”) was used.
as §2

[4] = tested on: bilirubin oxidase (BOD), coated BOD 3 (Example 1, coated at 4° C.)
Method: (§3) First, 40 mg of BOD and 1 mg of ethylenediaminetetraacetic acid (EDTA) used as a stabilizer were dissolved in 3.8 mL of a 100 mM boric acid solution (pH 9.3). Subsequently, 6.0 mg of N-acryloxysuccinimide was dissolved in 0.2 mL of DMSO, and the solution was then gradually added to the boric acid buffer. The resulting solution was allowed to react at 4° C. for 10 hours. Subsequently, the resulting acryloylated BOD in which acryloyl groups were introduced was purified using a Sephadex G25 column at 4° C.
(§4) Subsequently, at 4° C., a mixture prepared by mixing acrylamide and N,N′-methylenebisacrylamide in a molar ratio of 10:1 was dissolved in 0.5 mL of deionized water free of oxygen. The solution was homogeneously added to the above acryloylated BOD solution, and the resulting solution was allowed to react for 60 minutes. The reaction was further performed in the presence of nitrogen at 4° C. for 60 minutes. Finally, the coated BOD (hereinafter referred to as “coated BOD 3”) was purified using a Sephadex G75 column.
(§5) The Michaelis constants (KM) and the reaction rate constants (kcat) of coated BOD 3, coated BOD 4, free BOD 2, and free BOD 3 prepared above were measured under the conditions shown in Table 4. […] The amount of protein of each BOD sample was determined by BCA colorimetric protein assay from a calibration curve of BSA used as a standard protein.

[5] = tested on: bilirubin oxidase (BOD), coated BOD 4 (Example 1, coated at 4° C.)
Method: as §3, §4, §5

[6] = tested on: bilirubin oxidase (BOD), free BOD 2 (not coated, stored at 25° C.); details: ABTS, pH 7.0, 25° C., oxygen saturation
Method: (§6) As controls, BOD on which coating was not performed and which was stored at 25° C. for the same period of time as that is necessary for the process of preparing coated BOD 4 (hereinafter referred to as “free BOD 2”), and BOD on which coating was not performed and which was stored at 4° C. for the same period of time as that is necessary for the process of preparing coated BOD 4 (hereinafter referred to as “free BOD 3”) were used.
as §5

[7] = tested on: bilirubin oxidase (BOD), free BOD 3 (not coated, stored at 4° C.); details: oxygen saturation
Method: as §6, §5

Structure (SMILES): CCn1c(=NN=c2sc3cc(S(=O)(=O)O)ccc3n2CC)sc2cc(S(=O)(=O)O)ccc21.N.N [ABTS, 2,2′-Azino-bis(3-ethylbenzothiazoline-6-sulfonic acid) diammonium salt]
- kcat ([1]; coated BOD 1, ABTS, pH 7.0, 25° C., oxygen saturation): 10.2 s⁻¹
- Michaelis constant (KM) compared with free BOD 1 ([1]; coated BOD 1 vs free BOD 1): no significant difference
- Km ([1]; read-out: KM,ABTS, coated BOD 1, 2.05 nM, ABTS 0.05 to 10 mM, pH 7.0 sodium phosphate, 25° C., oxygen saturation, 730 nm): 383 µM
- kcat ([2]; coated BOD 2, ABTS, pH 7.0, 25° C., oxygen saturation): 1.92 s⁻¹
- Michaelis constant (KM) compared with free BOD 1 ([2]; coated BOD 2 vs free BOD 1): no significant difference
- Km ([2]; read-out: KM,ABTS, coated BOD 2, 19.7 nM, ABTS 0.05 to 10 mM, pH 7.0 sodium phosphate, 25° C., oxygen saturation, 730 nm): 405 µM
- kcat ([3]; free BOD 1, ABTS, pH 7.0, 25° C.): 234 s⁻¹
- Km ([3]; read-out: KM,ABTS, free BOD 1, 712 pM, ABTS 0.05 to 10 mM, pH 7.0 sodium phosphate, 25° C., 730 nm): 307 µM
- kcat ([4]; coated BOD 3, ABTS, pH 7.0, 25° C., oxygen saturation): 52.5 s⁻¹
- Michaelis constant (KM) compared with free BOD 2 and free BOD 3 ([4]; coated BOD 3 vs free BOD 2 and free BOD 3): about twice
- Km ([4]; read-out: KM,ABTS, coated BOD 3, 1.09 nM, ABTS 0.05 to 7 mM, pH 7.0 sodium phosphate, 25° C., oxygen saturation, 730 nm): 570 µM
- kcat ([5]; coated BOD 4, ABTS, pH 7.0, 25° C., oxygen saturation): 52.7 s⁻¹
- Michaelis constant (KM) compared with free BOD 2 and free BOD 3 ([5]; coated BOD 4 vs free BOD 2 and free BOD 3): about twice
- Km ([5]; read-out: KM,ABTS, coated BOD 4, 3.30 nM, ABTS 0.05 to 7 mM, pH 7.0 sodium phosphate, 25° C., oxygen saturation, 730 nm): 670 µM
- kcat [6]: 158 s⁻¹
- kcat ([7]; free BOD 3, ABTS, pH 7.0, 25° C.): 216 s⁻¹
- Km ([7]; read-out: KM,ABTS, free BOD 3, 0.629 nM, ABTS 0.05 to 7 mM, pH 7.0 sodium phosphate, 25° C., 730 nm): 358 µM
